The results in this text go back to ChEMBL document CHEMBL6078680, “Improving the Stability and Anti-Infective Activity of Sea Turtle AMPs Using Multiple Structural Modification Strategies” (J Med Chem, 2024).

The source made the active and inactive calls. The calls are words filed in the database; no cut-off is given here. Starred links: 1 amine or outer side, 2 acyl side, 3 side chain; linkers in the order of their positions; H or OH if unused. Positions of bridges follow the written chain, without caps; N, C: chain ends. Non-standard residues stand in square brackets, D forms with d. Residues, ends and D or L forms follow the SMILES beside them. X2 = C[C@](CCCCCCCC=[*:3])(N[*:1])C(=O)[*:2]; X1 = C[C@@](CCCCC=[*:3])(N[*:1])C(=O)[*:2] Bounds are passed on as bounds.

Data set [1] deals with Peritoneal macrophage. Nature of the data set: Antiinflammatory activity in mouse Peritoneal macrophage cells assessed as inhibition of LPS-induced TNF-alpha production at 20 microg/ml incubated for 6 hrs by ELISA analysis. The class given is functional, cell-based. Particulars: dose 20.0 µg/ml.
Data set [2] concerns Staphylococcus aureus. In words: Antimicrobial activity against Staphylococcus aureus CMCC 26003 at 5 times MIC measured at 180 mins. In kind it is functional, organism-based.
Data set [3] in a line: Hemolytic activity at human Erythrocyte assessed as hemolysis at 100 microg/ml. In kind it is toxicity, cell-based. The following applies: erythrocytes, at 100 µg/mL, read-out: Activity.
Data set [4] concerns Peritoneal macrophage. Nature of the data set: Antiinflammatory activity in mouse Peritoneal macrophage cells assessed as inhibition of LPS-induced IL-6 production at 20 microg/ml incubated for 6 hrs by ELISA analysis. In kind it is functional, cell-based. The following applies: dose 20.0 µg/ml.
The subject of data set [5] is Peritoneal macrophage. In words: Cytotoxicity against mouse Peritoneal macrophage cells assessed as decrease in cell number at 20 microg/ml. The following applies: dose 20.0 µg/ml. In kind it is functional, cell-based.
The subject of data set [6] is 4T1. In words: Cytotoxicity against mouse 4T1 cells assessed as survival rate at 100 microg/ml. The following applies: read-out: Survival. The class given is functional.
In data set [7] the test system is HaCaT. Nature of the data set: Cytotoxicity against human HaCaT cells assessed as survival rate at 100 microg/ml. In kind it is functional. Particulars: read-out: Survival.
Data set [8] concerns Peritoneal macrophage. In words: Cytotoxicity against mouse Peritoneal macrophage cells assessed as survival rate at 100 microg/ml. Particulars: read-out: Survival. In kind it is functional.
Data set [9] relates to B16-F10. Nature of the data set: Cytotoxicity against mouse B16-F10 cells assessed as survival rate at 100 microg/ml. In kind it is functional. The following applies: read-out: Survival.

In the case of `CC[C@H](C)[C@H](NC(=O)[C@H](CCCNC(=N)N)NC(=O)[C@H](CO)NC(=O)[C@H](Cc1c[nH]cn1)NC(=O)[C@H](CCCNC(=N)N)NC(=O)[C@H](CC(C)C)NC(=O)[C@@H](NC(=O)[C@H](CCCNC(=N)N)NC(=O)CNC(=O)[C@]1(C)CCCC/C=C\CCCC[C@](C)(NC(=O)[C@H](CCCCN)NC(=O)[C@H](CCCCN)NC(=O)[C@@H](N)Cc2ccccc2)C(=O)N[C@@H](CCCNC(=N)N)C(=O)N[C@@H](CCCCN)C(=O)N[C@@H](CCC(N)=O)C(=O)N1)C(C)C)C(=O)N[C@H](C(=O)N[C@H](C(=O)NCC(=O)NCC(=O)N[C@@H](CCCNC(=N)N)C(=O)N[C@@H](CCSC)C(=O)N[C@@H](CCCNC(=N)N)C(=O)N[C@@H](Cc1ccccc1)C(=O)O)C(C)C)[C@@H](C)O` (H-FKK[X1]RKQ[X1]GRVLRHSRITVGGRMRF-OH; staple (Z) 4-8), the result in data set [1] and in data set [4] was Active. Further, the result in data set [2] was inactive. Moreover, the hemolysis at 100 microg/ml in [3] was below 5%.

In the case of `CC[C@H](C)[C@H](NC(=O)[C@H](CCCNC(=N)N)NC(=O)[C@H](CO)NC(=O)[C@H](Cc1c[nH]cn1)NC(=O)[C@H](CCCNC(=N)N)NC(=O)[C@H](CC(C)C)NC(=O)[C@@H](NC(=O)[C@H](CCCNC(=N)N)NC(=O)CNC(=O)[C@H](CC(C)C)NC(=O)[C@H](CCC(N)=O)NC(=O)[C@]1(C)CCCC/C=C\CCCC[C@](C)(NC(=O)[C@@H](N)Cc2ccccc2)C(=O)N[C@@H](CCCCN)C(=O)N[C@@H](C(C)C)C(=O)N[C@@H](CCCNC(=N)N)C(=O)N1)C(C)C)C(=O)N[C@H](C(=O)N[C@H](C(=O)NCC(=O)NCC(=O)N[C@@H](CCCNC(=N)N)C(=O)N[C@@H](CCSC)C(=O)N[C@@H](CCCNC(=N)N)C(=O)N[C@@H](Cc1ccccc1)C(=O)O)C(C)C)[C@@H](C)O` (H-F[X1]KVR[X1]QLGRVLRHSRITVGGRMRF-OH; staple (Z) 2-6), the outcome in data set [1] and in data set [4] was Active. The outcome in [2] was inactive. Moreover, the hemolysis at 100 microg/ml in data set [3] was below 5%.

As to H-SRFGRFFKKVRKQLGRVLRHSRITVGGRMRF-OH, the outcome in data set [1], in [5] and in data set [4] was Active. In addition, the result in data set [2] was inactive. The viability at 100 µg/mL in [6] was below 40%.

`CC[C@H](C)[C@H](NC(=O)[C@H](CCCNC(=N)N)NC(=O)[C@H](CO)NC(=O)[C@H](Cc1c[nH]cn1)NC(=O)[C@H](CCCNC(=N)N)NC(=O)[C@H](CC(C)C)NC(=O)[C@@H](NC(=O)[C@H](CCCNC(=N)N)NC(=O)CNC(=O)[C@]1(C)CCCC/C=C\CCCCCCC[C@@](C)(N)C(=O)N[C@@H](CCCCN)C(=O)N[C@@H](CCCCN)C(=O)N[C@@H](C(C)C)C(=O)N[C@@H](CCCNC(=N)N)C(=O)N[C@@H](CCCCN)C(=O)N[C@@H](CCC(N)=O)C(=O)N1)C(C)C)C(=O)N[C@H](C(=O)N[C@H](C(=O)NCC(=O)NCC(=O)N[C@@H](CCCNC(=N)N)C(=O)N[C@@H](CCSC)C(=O)N[C@@H](CCCNC(=N)N)C(=O)N[C@@H](Cc1ccccc1)C(=O)O)C(C)C)[C@@H](C)O` (H-[X2]KKVRKQ[X1]GRVLRHSRITVGGRMRF-OH; staple (Z) 1-8): the result in [1] and in [4] was Active. In [2], the outcome was inactive. For the same compound, in data set [3], the hemolysis at 100 microg/ml was below 5%.

Regarding `CC[C@H](C)[C@H](NC(=O)[C@H](CCCNC(=N)N)NC(=O)[C@H](CO)NC(=O)[C@H](Cc1c[nH]cn1)NC(=O)[C@H](CCCNC(=N)N)NC(=O)[C@]1(C)CCCC/C=C\CCCC[C@](C)(NC(=O)[C@H](CCC(N)=O)NC(=O)[C@H](CCCCN)NC(=O)[C@H](CCCNC(=N)N)NC(=O)[C@@H](NC(=O)[C@H](CCCCN)NC(=O)[C@H](CCCCN)NC(=O)[C@@H](N)Cc2ccccc2)C(C)C)C(=O)NCC(=O)N[C@@H](CCCNC(=N)N)C(=O)N[C@@H](C(C)C)C(=O)N1)C(=O)N[C@H](C(=O)N[C@H](C(=O)NCC(=O)NCC(=O)N[C@@H](CCCNC(=N)N)C(=O)N[C@@H](CCSC)C(=O)N[C@@H](CCCNC(=N)N)C(=O)N[C@@H](Cc1ccccc1)C(=O)O)C(C)C)[C@@H](C)O` (H-FKKVRKQ[X1]GRV[X1]RHSRITVGGRMRF-OH; staple (Z) 8-12), the result in data set [1] and in data set [4] was Active. For the same compound, in data set [2], the result was inactive. In addition, the hemolysis at 100 microg/ml in data set [3] is below 5%.

`CC[C@H](C)[C@H](NC(=O)[C@H](CCCNC(=N)N)NC(=O)[C@H](CO)NC(=O)[C@H](Cc1c[nH]cn1)NC(=O)[C@]1(C)CCCC/C=C\CCCCCCC[C@@](C)(NC(=O)[C@H](CCCNC(=N)N)NC(=O)[C@@H](NC(=O)[C@H](CCCCN)NC(=O)[C@H](CCCCN)NC(=O)[C@@H](N)Cc2ccccc2)C(C)C)C(=O)N[C@@H](CCC(N)=O)C(=O)N[C@@H](CC(C)C)C(=O)NCC(=O)N[C@@H](CCCNC(=N)N)C(=O)N[C@@H](C(C)C)C(=O)N[C@@H](CC(C)C)C(=O)N1)C(=O)N[C@H](C(=O)N[C@H](C(=O)NCC(=O)NCC(=O)N[C@@H](CCCNC(=N)N)C(=O)N[C@@H](CCSC)C(=O)N[C@@H](CCCNC(=N)N)C(=O)N[C@@H](Cc1ccccc1)C(=O)O)C(C)C)[C@@H](C)O` (H-FKKVR[X2]QLGRVL[X1]HSRITVGGRMRF-OH; staple (Z) 6-13): the outcome in data set [1] and in data set [4] was Active. Besides, in data set [2], the outcome was inactive. The hemolysis at 100 microg/ml in [3] was below 5%.

For the compound `CC[C@H](C)[C@@H]1NC(=O)[C@H](CCCNC(=N)N)NC(=O)[C@H](CO)NC(=O)[C@H](Cc2c[nH]cn2)NC(=O)[C@H](CCCNC(=N)N)NC(=O)[C@H](CC(C)C)NC(=O)[C@H](C(C)C)NC(=O)[C@H](CCCNC(=N)N)NC(=O)CNC(=O)[C@H](CC(C)C)NC(=O)[C@H](CCC(N)=O)NC(=O)[C@H](CCCCN)NC(=O)[C@H](CCCNC(=N)N)NC(=O)[C@H](C(C)C)NC(=O)[C@H](CCCCN)NC(=O)[C@H](CCCCN)NC(=O)[C@H](Cc2ccccc2)NC(=O)[C@@H](N)CSSC[C@@H](C(=O)O)NC(=O)[C@H](Cc2ccccc2)NC(=O)[C@H](CCCNC(=N)N)NC(=O)[C@H](CCSC)NC(=O)[C@H](CCCNC(=N)N)NC(=O)CNC(=O)CNC(=O)[C@H](C(C)C)NC(=O)[C@H]([C@@H](C)O)NC1=O` (H-CFKKVRKQLGRVLRHSRITVGGRMRFC-OH; disulfide 1-27), the result in data set [1] and in data set [4] was Active. For the same compound, the viability at 100 µg/mL in data set [7] and in [8] was above 80% each time. Moreover, the outcome in data set [2] was inactive. In addition, the hemolysis at 100 microg/ml in data set [3] is below 5%.

Take H-RRSRFGRFFKKVRKQLG-NH2: the viability at 100 µg/mL in [7] was 80%; in data set [9] it was below 40%; in [8], 80%; in [6], below 40%. Further, the result in [2] was inactive.

For the compound H-RRSRFGRFFKKVR-NH2, in data set [2], the result was inactive.

On to H-RFFKKVRKQLGRVLRHSRITVGGRMRF-OH, for which the outcome in data set [1], in data set [5] and in [4] was Active. In addition, in data set [2], the outcome was inactive. Moreover, the viability at 100 µg/mL in data set [6] was below 40%.

As to H-RKQLGRVLRHSRITVGGRMRF-OH, the outcome in data set [2] was inactive.

As to H-RRSRFGRFFKKVRKQLGRVLRHSRITVGGRMRF-OH, the outcome in data set [2] was inactive.

On to H-RHSRITVGGRMRF-OH, for which the outcome in [2] was inactive.

On to H-KVRKQLGRVLRHSRITVGGRMRF-OH, for which the result in [2] was inactive.

On to H-FGRFFKKVRKQLGRVLRHSRITVGGRMRF-OH, for which the outcome in [1], in [5] and in data set [4] was Active. The result in data set [2] was inactive. In data set [6], the viability at 100 µg/mL is below 40%.

H-QLGRVLRHSRITVGGRMRF-OH: the outcome in [2] was inactive.

Take H-GRVLRHSRITVGGRMRF-OH: the result in [2] was inactive.

For H-RRSRFGRFFKKVRKQLGRV-NH2, the viability at 100 µg/mL in data set [7] is 80%; in data set [9], below 40%; in data set [8] it was 80%; in data set [6], below 40%. Further, the result in [2] was inactive.

Turning to H-VLRHSRITVGGRMRF-OH, the result in data set [2] was inactive.

Turning to `CC[C@H](C)[C@H](NC(=O)[C@H](CCCNC(=N)N)NC(=O)[C@H](CO)NC(=O)[C@H](Cc1c[nH]cn1)NC(=O)[C@H](CCCNC(=N)N)NC(=O)[C@H](CC(C)C)NC(=O)[C@@H](NC(=O)[C@@H]1CSSC[C@H](NC(=O)[C@@H](NC(=O)[C@H](CCCCN)NC(=O)[C@H](CCCCN)NC(=O)[C@@H](N)Cc2ccccc2)C(C)C)C(=O)N[C@@H](CCCNC(=N)N)C(=O)N[C@@H](CCCCN)C(=O)N[C@@H](CCC(N)=O)C(=O)N[C@@H](CC(C)C)C(=O)NCC(=O)N[C@@H](CCCNC(=N)N)C(=O)N1)C(C)C)C(=O)N[C@H](C(=O)N[C@H](C(=O)NCC(=O)NCC(=O)N[C@@H](CCCNC(=N)N)C(=O)N[C@@H](CCSC)C(=O)N[C@@H](CCCNC(=N)N)C(=O)N[C@@H](Cc1ccccc1)C(=O)O)C(C)C)[C@@H](C)O` (H-FKKVCRKQLGRCVLRHSRITVGGRMRF-OH; disulfide 5-12), the result in data set [1] and in data set [4] was Active. Besides, the viability at 100 µg/mL in data set [7] and in data set [8] was above 80% throughout. The result in data set [2] was inactive. In addition, the hemolysis at 100 microg/ml in data set [3] is below 5%.

Consider H-RRSRFGRFFKKVRKQ-NH2, for which the result in [2] was inactive.
